Assay [1] has as its system Spodoptera littoralis larvae. Nature of the assay: Leaf-dip feeding bioassay on Spodoptera littoralis larvae (castor bean leaves). It counts as in vivo. The note with it: for Lethal concentrations for Spodoptera littoralis, LD50 / Lethal concentrations for Spodoptera littoralis, LD90: early 3rd-instar larvae, treated castor bean leaves, probit analysis. As for the experimental part: (§1) The laboratory susceptible strain of S. littoralis is collected in 2000 from a cotton field in Bet She'an area ([…] part of Israel) and is reared on castor bean (Ricinus communis) leaves under standard rearing conditions of 27° C., 55% RH and 14 h photoperiod. Field strain of H. armigera was collected in June 2020 from cotton fields near Rehovot area and was reared on premixed diet (Ward's Stonefly Heliothis Diet, USA) under standard rearing conditions of 27° C., 55% RH and 14 h photoperiod.
Assays with S. littoralis larvae were done as described by Ishaaya et al. (1996, 2003). Castor bean leaves were dipped in various concentrations of the test compounds (and water as control), and were air dried for 2 h under controlled room conditions. The treated leaves were transferred into foam plastic (“Kalkar”) cups containing a layer of sawdust to avoid humidity. The treated leaves were offered to early 3rd-instar (12±1 mg) for 4-day feeding of the laboratory susceptible strain and for additional 4 days on untreated leaves. Larval mortality was determined and recorded on day 4 and 8 or as indicated, and larval weight gain (LWG) was determined on day 4 and 8 or as indicated.
(§2) To obtain a concentration-mortality line, at least three concentrations were used for most of the bioassays. LC values were estimated by probit analysis (POLO, 1987). Control mortality was corrected using Abbott's (1925) formula.
(§3) Firstly, all the compounds were assessed alone against the larvae, and then, binary mixtures of chlorantraniliprole with tau-fluvalinate were evaluated in different ratios.

The subject of assay [2] is Helicoverpa armigera (Heliothis) larvae. Nature of the assay: Leaf-dip bioassay on Helicoverpa armigera larvae (cotton leaves). It counts as in vivo. The note with it: for Lethal concentrations for Helicoverpa armigera (Heliothis), LD50 / Lethal concentrations for Helicoverpa armigera (Heliothis), LD90: third instar larvae, treated cotton leaves, probit analysis. On the procedure:
as §1
Tender leaves of cotton were dipped in aqueous concentrations of a formulation or in water as control. After 15 seconds of dipping, the cotton leaves were then allowed to air dry for 2 h. Afterwards, Heliothis larvae (third instars, 8-10 mm), reared in a controlled growth room (27±2° C. and 50% RH with a photoperiod of 14:10 h light:dark) were put inside Petri dishes on treated cotton leaves; in addition, filter papers were also added to the dishes (to avoid too much moisture). The experiments were done on 5-10 larvae for each concentration and were repeated three times, on separate days.
Mortality of the larvae in comparison with the control was determined, two and five-six days after exposure to the formulations.
as §2, §3

One may read the mortality as the share of the test organisms that died. With `CNC(=O)c1cc(Cl)cc(C)c1NC(=O)c1cc(Br)nn1-c1ncccc1Cl` [Chlorantraniliprole], the mortality at 0.05 ppm was determined as 27% in assay [1] (Spodoptera littoralis, in Ricinus communis, 0.05 ppm, alone, read-out: S. littoralis mortality, %) and 18% in assay [2] (Helicoverpa armigera, 0.05 ppm, alone, read-out: H. armigera mortality, %). In addition, the mortality at 0.1 ppm in assay [1] (Spodoptera littoralis, in Ricinus communis, 0.1 ppm, alone, read-out: S. littoralis mortality, %) stood at 48%; in assay [2] (Helicoverpa armigera, 0.1 ppm, alone, read-out: H. armigera mortality, %), 40%. Moreover, the “Lethal concentrations for Spodoptera littoralis, LD50” value in assay [1] was “LD50 = 0.1 ppm”. Moreover, the “Lethal concentrations for Spodoptera littoralis, LD90” value in assay [1] was “LD90 = 1 ppm”. In assay [2], the “Lethal concentrations for Helicoverpa armigera (Heliothis), LD50” value is on record as “LD50 ≥ 0.1 ppm”. Besides, the “Lethal concentrations for Helicoverpa armigera (Heliothis), LD90” value in assay [2] is recorded as “LD90 ≥ 1 ppm”.
In the case of `CC(C)[C@@H](Nc1ccc(C(F)(F)F)cc1Cl)C(=O)OC(C#N)c1cccc(Oc2ccccc2)c1` (stereo partly shown) [Tau-fluvalinate], the mortality at 50 ppm in assay [1] (Spodoptera littoralis, in Ricinus communis, 50 ppm, alone, read-out: S. littoralis mortality, %) came out at 20%. Further, the mortality at 100 ppm in assay [1] (Spodoptera littoralis, in Ricinus communis, 100 ppm, alone, read-out: S. littoralis mortality, %) stood at 40%. Further, in assay [1], the “Lethal concentrations for Spodoptera littoralis, LD50” value is given as “LD50 ≥ 100 ppm” and the “Lethal concentrations for Spodoptera littoralis, LD90” value is reported as “LD90 ≥ 500 ppm”. The mortality at 50 ppm in assay [2] (Helicoverpa armigera, 50 ppm, alone, read-out: H. armigera mortality, %) came out at 30%. Moreover, in assay [2] (Helicoverpa armigera, 100 ppm, alone, read-out: H. armigera mortality, %), the mortality at 100 ppm was found to be 45%. Further, in assay [2], the “Lethal concentrations for Helicoverpa armigera (Heliothis), LD50” value is on record as “LD50 ≥ 100 ppm” and the “Lethal concentrations for Helicoverpa armigera (Heliothis), LD90” value is “LD90 ≥ 500 ppm”.
